The record followed here is US11963972B2, “Antiviral agents and nucleoside analogs for treatment of Zika virus” (priority 2016, dated 2024).

Some results are limits rather than exact numbers.

Series [1] can be described thus: Cytotoxicity MTT assay in PBM cells. It counts as cell-based. Conditions: human. The procedure:
v) Cellular Toxicity Assays: Nucleoside and nucleoside monophosphate prodrugs can be evaluated for their potential toxic effects on P4/R5 cells, MT-2 cells and uninfected PHA-stimulated human PBM cell. Log-phase P4/R5, MT-2, and PHA-stimulated human PBM cells can be seeded at 5×10^3 to 5×10^4 cells/well in 96-well cell culture plates containing 10-fold serial dilutions of the test drug. The cultures can be incubated for 2-4 days, after which 3-(4,5-dimethylthiazol-2-yl)-2,5-diphenyltetrazolium bromide (MTT) dye solution (Promega, Madison, WI) can be added to each well and incubated overnight. The reaction can be stopped with stop solubilization solution (Promega, Madison, WI) and plates can be read at a wavelength of 570 nm. The median 50% cytotoxic concentration (CC50) can be determined from the concentration-response curve using the median effect method.
(§1) The toxicity of the compounds can be assessed in Vero, human PBM, CEM (human lymphoblastoid), and can be assessed in MT-2, and HepG2 cells, as described previously (see Schinazi R. F., Sommadossi J.-P., Saalmann V., Cannon D. L., Xie M.-Y., Hart G. C., Smith G. A. & Hahn E. F. Antimicrob. Agents Chemother. 1990, 34, 1061-67). Cycloheximide can be included as positive cytotoxic control, and untreated cells exposed to solvent can be included as negative controls. The cytotoxicity (IC50) can be obtained from the concentration-response curve using the median effective method described previously (see Chou T.-C. & Talalay P. Adv. Enzyme Regul. 1984, 22, 27-55; Belen'kii M. S. & Schinazi R. F. Antiviral Res. 1994, 25, 1-11).

A short description of series [2]: Cytotoxicity MTT assay in CEM cells. Type of series: cell-based. Conditions: human.
From the text: as §1
On the technique in general: Formazan colour is commonly taken as a measure of viable cells.

Series [3] is described as follows: Cytotoxicity MTT assay in Vero cells. Conditions: African green monkey. It counts as cell-based.
From the text: as §1

Series [4] relates to ZIKV Puerto Rico strain (PRVABC59). Briefly: ZIKV CPE MTS assay in Vero cells. Type of series: cell-based, Zika virus. Conditions: Zika virus; for IC50: 96 h, read-out: ZIKV CPE MTS Assay IC50 (μM) Vero; for inhibition at 20 µM / inhibition at 10 µM: read-out: ZIKV CPE MTS Assay percentage of inhibition at the concentration, Vero. As to the method: (§2) […] Cell cytopathic effect (CPE) MTS assay (CellTiter 96@k) AQueous One Solution Cell Proliferation Promega kit, Promega) was measured four (Vero) or five (U251 or Huh7) days after compound addition to determine the levels of replication inhibition.

The test system is the same in series [5]. Description: ZIKV CPE MTS assay in Huh7 cells. Type of series: cell-based, Zika virus. Conditions: Zika virus, Huh-7, 120 h, read-out: ZIKV CPE MTS Assay IC50 (μM) Huh7. The procedure:
as §2

For series [6] the test system is unchanged. Description: ZIKV CPE MTS assay in human neuroblastoma (U251) cells. It counts as cell-based, Zika virus. Conditions: Zika virus; for IC50: U-251, 120 h, read-out: ZIKV CPE MTS Assay IC50 (μM) H251. As to the method:
as §2

Series [7] in a line: Cytotoxicity MTT assay in Huh7 cells. Type of series: cell-based. The settings on record: human.
The nature of series [8]: Cytotoxicity MTT assay in HepG2 cells. Conditions: human. Type of series: cell-based.
From the text: as §1

In a further series the test system is Zika virus. Description: Zika-infected Vero cell model, 4G2 antibody staining, FACS. It counts as cell-based. The settings on record: 72 h, MOI 0.1, Day 3, FACS, read-out: percent inhibition of Zika-infected Vero cells. The procedure: At 8 AM on Day 1, 10,000 cells/well were plated in a 96 well plate. At 2 PM, MOI 0.1 Zika virus was added. At 3 PM, virus inoculum was removed, and various concentrations of drug-containing medium was added, at multiple concentrations (duplicates of […]).
On Day 3, supernatants were harvested, and frozen for later RT-PCR confirmation. Cells were harvested, stained with 4G2 antibody, and intracellular virus was quantified with FACS. The EC50/EC90 were then calculated.
Concentrations of 10, 1, 0.1, 0.01 μM were assayed in duplicate for 10 total drugs. All cells were harvested, but the only cells stained with antibody were those contacted with the following compounds, in the listed concentrations:
All gates were established using uninfected cells as a control, and were maintained for all test conditions.

Setting [9] is: Vero cells, MOI=0.01, four days.
Where [10] appears, read: U-251, read-out: ZIKV CPE MTS Assay percentage of inhibition at the concentration, H251.

As usually defined, the IC50 is the concentration at which inhibition is half-maximal. For `C[C@@]1(O)C(n2cnc3c(N)ncnc32)O[C@H](CO)[C@@H]1O` (stereo partly drawn), the IC50 was over 100 µM in series [1] (PHA-stimulated human PBM cells); over 100 µM in series [2] (CEM lymphoblastoid cells); over 100 µM in [3]; 13.1 µM in series [4] (setting [9]); 1.7 µM in series [5] (Huh7 cells, MOI=0.5, five days); over 10 µM in [6] (H251 cells, MOI=0.5, five days). The inhibition at 10 µM in series [6] (U-251, H251 cells, at 10 μM, read-out: ZIKV CPE MTS Assay percentage of inhibition at the concentration, H251) was 37%.

Regarding `CC(C)OC(=O)[C@H](C)NP(=O)(OC[C@H]1O[C@@H](n2cc(F)c3c(N)ncnc32)[C@](C)(O)C1O)Oc1ccccc1` (stereo partly drawn), the IC50 in series [1] (PBM cells) was 34.7 µM; in series [2] it was 92.1 µM; in series [3] it was over 100 µM; in series [4] (Vero), over 20 µM; in series [5] it was 7.6 µM; in [6], over 10 µM. Moreover, in series [6] (setting [10]), the inhibition at 10 µM was 1%.

For the compound `CC(C)OC(=O)[C@H](C)NP(=O)(OCC1O[C@@H](n2cnc3c(N)nc(N)nc32)[C@](C)(O)[C@@H]1O)Oc1ccccc1` (stereo partly drawn), the IC50 is over 100 µM in [1] (PBM cells); over 100 µM in [2]; over 100 µM in series [3]; over 100 µM in series [7]; over 20 µM in series [4] (Vero); 3.7 µM in series [5]. For the same compound, the IC50 in [6] was over 20 µM. Moreover, the figures for the inhibition at 20 µM in series [4] (Vero) and in [6] (setting [10]) were 1% and 25%, respectively.

Regarding `CCOC(=O)[C@@H](C)NP(=O)(OC[C@H]1O[C@@H](n2ccc(NO)nc2=O)C(C)(O)C1O)Oc1ccccc1` (stereo partly drawn), the IC50 in [1] (PBM cells) was over 100 µM; in [2], over 100 µM; in [3] it was over 100 µM; in [7], over 100 µM; in [4] (Vero), over 20 µM; in series [5] it was 5 µM. In addition, the IC50 in [6] is over 20 µM. The inhibition at 20 µM is 1% in [4] (Vero) and 27% in series [6] (setting [10]).

Regarding `CCOC(=O)[C@H](C)NP(=O)(OCC1C(n2cnc3c(N)cc(N)nc32)C[C@](C)(O)[C@@H]1O)Oc1ccccc1` (stereo partly drawn), the IC50 in series [1] (PBM cells) is over 100 µM; in [2], over 100 µM; in [3], over 100 µM; in series [7], over 100 µM; in series [4] (Vero), over 20 µM; in series [5], 2.9 µM. In addition, the IC50 in series [6] was over 20 µM. For the same compound, the inhibition at 20 µM in series [4] (Vero) is 1%; in [6] (setting [10]) it was 42%.

`CC(C)OC(=O)[C@H](C)NP(=O)(OC[C@H]1O[C@@H](n2ccc(=O)[nH]c2=O)[C@@](F)(Cl)C1O)Oc1ccccc1` (stereo partly drawn): the IC50 in [1] (PBM cells) is over 100 µM; in series [2], over 100 µM; in series [3] it was over 100 µM; in series [4] (Vero) it was under 10 µM. The inhibition at 10 µM in series [4] (Vero) stood at 76%.

Consider `CC1(O)C(O)[C@@H](CO)O[C@H]1n1cc(F)c2c(N)ncnc21` (stereo partly drawn) [drawing 91], for which the half-maximal inhibitory concentration (IC50) in series [1] (PHA-stimulated human PBM cells) was 83.7 µM; in [2] (CEM lymphoblastoid cells), 33.6 µM; in series [3], over 100 µM; in [7], 17.5 µM; in series [4] (setting [9]), 5.1 µM; in [5] (Huh7 cells, MOI=0.5, five days), 1.7 µM. The IC50 in series [6] (H251 cells, MOI=0.5, five days) was 6.1 µM.

With `CCOC(=O)[C@H](C)NP(=O)(OCC1O[C@@H](n2cnc3c(NOC)nc(N)nc32)[C@](C)(O)[C@@H]1O)Oc1ccccc1` (stereo partly drawn), the concentration for half-maximal inhibition (IC50) in series [1] (PBM cells) is over 100 µM; in series [2], 28 µM; in series [3], over 100 µM; in series [7], 94 µM; in series [4] (Vero), over 20 µM; in series [5], 4.7 µM. Also, in [6], the IC50 was over 20 µM. Moreover, the inhibition at 20 µM in series [4] (Vero) came to 19%; in series [6] (setting [10]), 43%.

As to `CC(C)OC(=O)[C@H](C)N[P@](=O)(OC[C@H]1O[C@@H](n2ccc(=O)[nH]c2=O)[C@](C)(F)[C@@H]1O)Oc1ccccc1`, the IC50 in series [1] (PBM cells) was over 100 µM; in [2], over 100 µM; in [3] it was over 100 µM; in series [7] it was 49.3 µM; in series [4] (Vero) it was over 20 µM; in series [5], 5.7 µM. For the same compound, the IC50 in series [6] is over 20 µM. In addition, the inhibition at 20 µM was determined as 1% in [4] (Vero) and 17% in [6] (setting [10]).

Consider `CC(C)OC(=O)[C@H](C)NP(=O)(OC[C@H]1O[C@@H](n2ccc(N)nc2=O)C(F)(Cl)C1O)Oc1ccccc1` (stereo partly drawn), for which the IC50 in series [1] (PBM cells) is over 100 µM; in [2], over 100 µM; in [3] it was over 100 µM; in series [4] (Vero) it was under 10 µM. Also, the inhibition at 10 µM in series [4] (Vero) worked out at 80%.

`CC(C)OC(=O)[C@H](C)NP(=O)(OCC1O[C@@H](n2cnc3c(N=[N+]=[N-])nc(N)nc32)[C@](C)(O)[C@@H]1O)Oc1ccccc1` (stereo partly drawn): the IC50 in [1] (PBM cells) was over 100 µM; in series [2], over 100 µM; in [3] it was over 100 µM; in series [7] it was over 100 µM; in series [4] (Vero), over 20 µM; in series [5], 11.5 µM. The IC50 in [6] was over 20 µM. Besides, the inhibition at 20 µM in [4] (Vero) came to 1%; in series [6] (setting [10]), 20%.

Take `C[C@@H]1C[C@@H]([C@H](O)CC2CC(=O)NC(=O)C2)C(=O)[C@@H](C)C1`: the IC50 is 0.9 µM in series [1] (PBM cells), 0.2 µM in series [2], 0.2 µM in series [3] and 0.3 µM in series [8].

Regarding `O=c1nc(NO)ccn1[C@@H]1O[C@H](CO)C(O)C1O` (stereo partly drawn) [drawing 107], the IC50 in series [1] (PHA-stimulated human PBM cells) came out at 30.6 µM; in [2] (CEM lymphoblastoid cells) it was 2.5 µM; in series [3], 7.7 µM; in series [4] (setting [9]), 3.2 µM; in series [5] (Huh7 cells, MOI=0.5, five days), 5.1 µM; in series [6] (H251 cells, MOI=0.5, five days), 4.3 µM.

Consider `CC(C)OC(=O)[C@H](C)NP(=O)(OC[C@H]1O[C@@H](n2ccc(NO)nc2=O)C(C)(O)C1O)Oc1ccccc1` (stereo partly drawn), for which the IC50 in [1] (PBM cells) was over 100 µM; in series [2], over 100 µM; in series [3], over 100 µM; in series [7] it was over 100 µM; in series [4] (Vero) it was over 20 µM; in series [5], 0.8 µM. Also, the IC50 in series [6] was over 20 µM. The figures for the inhibition at 20 µM in series [4] (Vero) and in series [6] (setting [10]) were 1% and 3%, respectively.

Consider `O=c1nc(NO)ccn1[C@@H]1O[C@H](CO)C(O)C1O` (stereo partly drawn) [drawing 85], for which, in the series on Zika virus, the inhibition at 0.01 µM worked out at 0%, the inhibition at 0.1 µM came to 5%, the inhibition at 1 µM worked out at 35% and the inhibition at 10 µM was 57%.

Take `CC1(O)C(O)[C@@H](CO)O[C@H]1n1cc(F)c2c(N)ncnc21` (stereo in doubt): in the series on Zika virus, the inhibition at 0.01 µM came out at 21%, the inhibition at 0.1 µM turned out to be 59%, the inhibition at 1 µM came to 73% and the inhibition at 10 µM came out at 83%.

With `O=C(O)c1cc(/N=N/c2ccc(S(=O)(=O)Nc3ccccn3)cc2)ccc1O` [drawing 106], the IC50 in series [1] (PHA-stimulated human PBM cells), in series [2] (CEM lymphoblastoid cells), in series [3] and in series [8] was over 100 µM throughout.

For `C[C@@]1(O)C(O)[C@@H](CO)O[C@H]1n1cnc2c(N)ncnc21` (stereo partly drawn), the IC50 in series [4] (setting [9]) is 20 µM; in [5] (Huh7 cells, MOI=0.5, five days) it was 3.4 µM; in series [6] (H251 cells, MOI=0.5, five days) it was over 20 µM. Also, the inhibition at 20 µM in series [6] (U-251, H251 cells, at 20 μM, read-out: ZIKV CPE MTS Assay percentage of inhibition at the concentration, H251) was found to be 24%.
